{"source": "patent US4879382A", "about": "“Pyrido(3,4-f)pyrrolo(1,2-b)(1,2,5)triazepines” (Hoechst-Roussel Pharmaceuticals, Inc., priority 1988, dated 1989)", "key": {"[1]": {"test": "adjuvant-induced polyarthritis syndrome in rats assay (antiinflammatory activity)", "assay_type": "in vivo, rats (Charles River-Wistar Lewis)", "details": "Rattus norvegicus, po, 504 h, read-out: Non-Injected Paw ED50", "protocol": "Several of the compounds of this invention have utility as antiinflammatory agents. Antiinflammatory activity was measured pursuant to the adjuvant-induced polyarthritis syndrome in rats assay by a procedure similar to that described by C. M. Pearson and F. D. Wood, Arthritis and Rheumatism, 2, 440 (1959).\nGroups of 10 male Charles River-Wistar Lewis rats weighing 150 to 175 g were individually housed and maintained on a regular rat chow diet. Water was given ad libitum. The adjuvant was prepared by suspending 75 mg of Mycobacterium butyricum (Difco Laboratories, Detroit, Mich.) in 10 ml of white paraffin oil with continuous stirring for 2 hours at room temperature prior to administration. Test compounds are prepared by suspending the drug in water, adding one drop of Tween 80 per 10 ml of suspension, and homogenizing. The adjuvant suspension (0.1 ml) was injected into the footpad of the left hind paw of the rat. Test compound suspensions were administered orally (10 ml/kg) the day before adjuvant suspension injection and the administration was continued daily for 21 days. […] Injected and non-injected paw volumes were determined on the day the adjuvant suspension was given, and on subsequent days thereafter (usually days 5, 10, 18, and 21) by the method of C. […]\nThe percent inhibition of paw volume (injected and non-injected paw) were calculated by the following formula: [formula] […]"}, "[2]": {"test": "dark avoidance assay (memory enhancing activity)", "assay_type": "in vivo", "details": "mice", "protocol": "Pursuant to the dark avoidance assay, mice are tested for their ability to remember an unpleasant stimulus for a period of 24 hours. A mouse is placed in a chamber that contains a dark compartment; a strong incandescent light drives it to the dark compartment, where an electric shock is administered through metal plates on the floor. The animal is removed from the testing apparatus and tested again, 24 hours later, for the ability to remember the electric shock."}, "[3]": {"test": "phenyl-p-quinone writhing assay (analgesic activity)", "assay_type": "in vivo, mice (Charles River, CD-1)", "details": "mice", "protocol": "The compounds of this invention are useful as analgesic agents due to their ability to alleviate pain in mammals. The procedure employed to determine analgetic utility is a modification of the phenyl-p-quinone writhing assay in mice, a standard assay for analgetic activity [Proc. Soc. Exptl. Med., 95 729 (1957)]. Pursuant to the modified procedure phenyl-p-benzoquinone (Eastman, 12.5 mg) is dissolved in 5 ml of 95% ethanol and the solution is diluted to a total volume of 100 ml with distilled water. The solution is administered to the subject mice intraperitoneally at a dose of 10 ml per kg of body weight. A characteristic \"writhe\", an inward rotation of one or more feet with twisting and turning of the trunk, drawing in of the abdominal wall, lordosis and arching of the back, is produced.\nA total of 28 male mice (Charles River, CD-1), weighing 18 to 30 grams, are employed for a time response. The subject animals receive food and water ad libitum. Test compounds are dissolved in distilled water, or suspended in distilled water containing one drop of a suitable surfactant, such as Tween-80.\nFour groups of five animals (20 animals) are given the test compound subcutaneously (s.c.) or perorally (p.o.) at 15, 30, 45 and 60 minutes prior to administration of the phenyl-p-benzoquinone. A control group (2 animals per group) receive an equal volume of the vehicle. After the administration of the phenyl-p-benzoquinone, the mice are placed separately in one liter beakers, and after five minutes, are observed for ten minutes. The number of writhes for each animal is recorded. Thefollowing formula is used to compute the percent inhibition: [formula]\nA dose range determination is run in the same manner as the time response except 10 animals per group are tested at the peak time of test drug activity. Fifty animals, 4 test drug groups, and a vehicle control are employed. Animals are dose and tested in a randomized manner. The time period with the greatest percent of inhibition is considered the peak time."}, "[4]": {"test": "tetrabenazine induced ptosis assay (antidepressant activity)", "assay_type": "in vivo, mice (Charles River, CD-1)", "details": "mice; for ED50: Mus musculus, ip, dose for 50% inhibition of tetrabenazine-induced ptosis", "protocol": "Several of the compounds of this invention are also useful as antidepressants by virtue of their ability to elicit an antidepressant response in mammals. Antidepressant activity is determined by the tetrabenazine induced ptosis assay in mice, [International Journal of Neuropharmacology, 8, 72 (1969], a standard assay for the determination of antidepressant activity. […] Tetrabenazine methanesulfonate (76.78% as the free base) is dissolved in distilled water and the concentration of the solution is adjusted so that the dose, administered intraperitoneally (i.p.) to the animals, is 40 mg of tetrabenazine base per kg of animal body weight. The test compound is administered intraperitoneally (i.p.) or orally to the subject animals, and the tetrabenazine solution is administered 30 minutes or 60 minutes, respectively, thereafter. Tetrabenazine solution and the solvent used to dissolve, or suspend, the test compounds are administered by the same route and at the same intervals as the test compounds to a control group. […] The vehicle-control group score is used as a determination of the validity of each test. The results are discarded and the test is repeated, if the control score is determined to be less than 17. […] A linear-regression analysis is used to estimate ED50 values and 95% confidence limits."}}, "data": [{"smiles": "CC(=O)Oc1ccccc1C(=O)O", "note": "[Aspirin, reference compound]", "values": [{"measurement": "ED50", "setting": "[1]", "value": 110, "unit": "mg/kg"}]}, {"smiles": "CNC(=O)Oc1ccc2c(c1)[C@]1(C)CCN(C)[C@@H]1N2C", "note": "[physostigmine, reference compound]", "values": [{"measurement": "% of Animals With Scopolamine Induced Memory Deficit Reversed", "setting": "[2]; 0.31 mg/kg s.c.", "value": 20, "unit": "%"}]}, {"smiles": "CN1c2ccncc2NC(c2ccccc2)c2cccn21", "note": "(centres unmarked) [10,11-dihydro-5-methyl-10-phenyl-5H-pyrido[3,4-f]pyrrolo[1,2-b][1,2,5]triazepine]", "values": [{"measurement": "% Inhibition of Writhing at a Screening Dose of 20 mg/kg, s.c.", "setting": "[3]", "value": 47, "unit": "%"}]}, {"smiles": "CC1Nc2cnccc2N(C)n2cccc21", "note": "(centres unmarked) [10,11-Dihydro-5,10-dimethyl-5H-pyrido[3,4-f]pyrrolo[1,2-b][1,2,5]triazepine]", "values": [{"measurement": "% of Animals With Scopolamine Induced Memory Deficit Reversed", "setting": "[2]; 2.5 mg/kg s.c.", "value": 33, "unit": "%"}, {"measurement": "inhibition of ptosis", "setting": "[4]; at a dose of 10 mg/kg i.p.", "value": 47, "unit": "%"}]}, {"smiles": "CN1c2ccncc2NCc2cccn21", "note": "[10,11-Dihydro-5-methyl-5H-pyrido[3,4-f]pyrrolo[1,2-b][1,2,5]triazepine]", "values": [{"measurement": "% Inhibition of Writhing", "setting": "[3]; at a dose of 12.6 mg/kg s.c. (footnote 1)", "value": 50, "unit": "%"}]}, {"smiles": "CN(C)CCCC1Nc2cnccc2N(C)n2cccc21", "note": "(centres unmarked) [10,11-Dihydro-5-methyl-10-[3-(N,N-dimethylamino)propyl]-5H-pyrido[3,4-f]pyrrolo[1,2-b][1,2,5]triazepine]", "values": [{"measurement": "% of Animals With Scopolamine Induced Memory Deficit Reversed", "setting": "[2]; 1.25 mg/kg s.c.", "value": 27, "unit": "%"}, {"measurement": "% Inhibition of Writhing at a Screening Dose of 20 mg/kg, s.c.", "setting": "[3]", "value": 57, "unit": "%"}]}, {"smiles": "CNC(=O)N1Cc2cccn2N(C)c2ccncc21.O=C(O)/C=C\\C(=O)O", "note": "[10,11-Dihydro-5-methyl-11-methylcarbamyl-5H-pyrido[3,4-f]pyrrolo[1,2-b][1,2,5]triazepine maleate]", "values": [{"measurement": "% Inhibition of Writhing at a Screening Dose of 20 mg/kg, s.c.", "setting": "[3]", "value": 44, "unit": "%"}]}, {"smiles": "CN1c2ccncc2N(C=O)Cc2cccn21.O=C(O)/C=C\\C(=O)O", "note": "[11-Formyl-10,11-dihydro-5-methyl-5H-pyrido[3,4-f]pyrrolo[1,2-b][1,2,5]triazepine maleate]", "values": [{"measurement": "% Inhibition of Writhing at a Screening Dose of 20 mg/kg, s.c.", "setting": "[3]", "value": 47, "unit": "%"}]}, {"smiles": "CN1CCC(C2Nc3cnccc3N(C)n3cccc32)CC1", "note": "(centres unmarked) [10,11-Dihydro-5-methyl-10-[(1-methyl)piperidin-4-yl]-5H-pyrido[3,4-f]pyrrolo[1,2-b][1,2,5]triazepine]", "values": [{"measurement": "ED50", "setting": "[1]; rats, p.o., daily for 21 days, dose for 50% inhibition of adjuvant induced inflammation, non-injected paw", "value": 53.7, "unit": "mg/kg"}, {"measurement": "ED50", "setting": "[4]", "value": 15.7, "unit": "mg/kg"}]}, {"smiles": "CC(C)=CCN1CCC2(C)c3cc(O)ccc3CC1C2C", "note": "(centres unmarked) [Pentazocine, reference compound]", "values": [{"measurement": "% Inhibition of Writhing", "setting": "[3]; at a dose of 1.3 mg/kg s.c. (footnote 2)", "value": 50, "unit": "%"}]}, {"smiles": "CN(C)CCC=C1c2ccccc2CCc2ccccc21", "note": "[amitryptyline, reference compound]", "values": [{"measurement": "ED50", "setting": "[4]", "value": 1.5, "unit": "mg/kg"}]}]}
